Holding throughout (assay type): in vivo
The subject of test [1] is Cotton Aphid (aphis gossypii, Mixed Life Stages). Briefly: Cotton aphid (aphis gossypii, mixed life stages), cotyledon dip test. To be noted: 120 h, mortality counts after 5 days, in comparison with untreated controls. The procedure, abridged:
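Cotton seedlings at the cotyledon stage were infested with mixed-stage aphids transferred overnight from infested leaves, then dipped in compound solution (50:50 acetone:water with 100 ppm surfactant) and dried. Mortality was counted after 5 days.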

Test [2] concerns Green Peach Aphid (Myzus persicae, Mixed Life Stages). Description: Green peach aphid (Myzus persicae, mixed life stages), pepper leaf dip test. To be noted: foliar, 120 h, after 5 days, in comparison with untreated controls. A digest of the protocol:
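Pepper plants at the 2nd leaf-pair stage were infested with about 40 mixed-stage aphids, then leaf-dipped in graded concentrations of compound in 50:50 acetone:water with 100 ppm surfactant. Plants were held at about 25 °C, 20–40% RH, under 24 h light. Mortality relative to check plants was scored after 5 days.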

Test [3] relates to Cowpea Aphid (aphis craccivora). Description: Cowpea aphid (aphis craccivora), spray on potted cowpea plants. The following applies: population reduction assessed after 24, 72 and 120 hours, in comparison with untreated controls. The procedure:
The active compounds were formulated in 50:50 (vol:vol) acetone:water. The test solution was prepared at the day of use.
Potted cowpea plants colonized with 100-150 aphids of various stages were sprayed after the pest population had been recorded. Population reduction was assessed after 24, 72, and 120 hours.

Another test relates to Bean Aphid (Aphis fabae). Description: Bean aphid (Aphis fabae), nasturtium plant dip test. The following applies: 72 h, after 3 days, in comparison with untreated controls. An excerpt: (§1) The active compounds were formulated in 50:50 (vol:vol) acetone:water and 100 ppm Kinetica™ surfactant.
Nasturtium plants grown in Metro mix in the 1st leaf-pair stage (variety ‘Mixed Jewel’) were infested with approximately 2-30 laboratory-reared aphids by placing infested cut plants on top of the test plants. The cut plants were removed after 24 hr. Each plant was dipped into the test solution to provide complete coverage of the foliage, stem, protruding seed surface and surrounding cube surface and allowed to dry in the fume hood. The treated plants were kept at about 25° C. with continuous fluorescent light. Aphid mortality is determined after 3 days.

Test [4] concerns Vetch Aphid (Megoura viciae). Description: Vetch aphid (Megoura viciae), bean leaf disk microtiterplate test. The following applies: foliar, 144 h, concentration of the test solution 2500 mg/L, 6 days. The procedure, abridged: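 Bean leaf disks on 0.8% agar with 2.5 ppm OPUS™ were sprayed with compound in 1:3 DMSO:water, then infested with 5–8 adult aphids. Kept 6 days at 23±1 °C, 50±5% RH under fluorescent light. Mortality and fecundity were scored visually from vital, reproduced aphids.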

Test [5] deals with Boll Weevil (Anthonomus grandis). Description: Boll weevil (Anthonomus grandis), insect diet microtiter plate test. The following applies: 120 h, concentration of the test solution 2500 mg/L, egg and larval mortality after 5 days. The procedure, abridged: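 Compounds in 75:25 water:DMSO sprayed at 20 μl onto insect diet in wells holding 20–30 eggs, several concentrations, two replicates. Incubation 5 days at 23±1° C, 50±5% RH, followed by visual scoring of egg and larval mortality.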

Test [6] has as its system Brown Planthopper (nilaparvata lugens). Briefly: Brown planthopper (nilaparvata lugens), rice seedling spray test. The following applies: after 72 hours, in comparison with untreated controls. The procedure:
The active compounds were formulated as a 50:50 (vol:vol) acetone:water solution. Surfactant (Alkamuls EL 620) was added at the rate of 0.1% (vol/vol).
Rice seedlings were cleaned and washed 24 h before spraying. Potted rice seedlings were sprayed with 5 ml test solution, air dried, placed in cages and inoculated with 10 adults. Treated rice plants were kept at 28-29° C. and relative humidity of 50-60%. Percent mortality was recorded after 72 hours.

The subject of test [7] is Silverleaf Whitefly (bemisia argentifolii, adult). Description: Silverleaf whitefly (bemisia argentifolii, adult), cotton cotyledon dip test. To be noted: 72 h, 3 days after treatment, in comparison with untreated controls. The procedure: as §1
Selected cotton plants were grown to the cotyledon state (one plant per pot). The cotyledons were dipped into the test solution to provide complete coverage of the foliage and placed in a well-vented area to dry. Each pot with treated seedling was placed in a plastic cup and 10 to 12 whitefly adults (approximately 3-5 day old) were introduced. The insects were collected using an aspirator and an 0.6 cm, non-toxic Tygon® tubing (R-3603) connected to a barrier pipette tip. The tip, containing the collected insects, was then gently inserted into the soil containing the treated plant, allowing insects to crawl out of the tip to reach the foliage for feeding. The cups were covered with a reusable screened lid (150 micron mesh polyester screen PeCap from Tetko Inc). Test plants were maintained in the holding room at about 25° C. and 20-40% relative humidity for 3 days avoiding direct exposure to the fluorescent light (24 hour photoperiod) to prevent trapping of heat inside the cup. Mortality was assessed 3 days after treatment of the plants.

As usually defined, the mortality is the percentage killed. Low readings indicate a weak lethal effect, high ones a strong lethal effect.

For `Cc1c(C(=O)Nc2cccnc2)cnn1-c1nccs1` [Compound 116], the results for the mortality at 300 ppm in test [1], in test [2] and in test [3] were at least 75%, at least 50% and at least 75%, respectively. Besides, in the test with Bean Aphid (Aphis fabae), the mortality at 10 ppm is at least 90%. For the same compound, the figures for the mortality at 2500 µg/mL in test [4] and in test [5] were at least 80% and 100%, respectively.
Turning to `CCc1c(C(=O)Nc2cccnc2)cnn1-c1ccc(Cl)cc1` [Compound 143], the mortality at 300 ppm in test [1] is at least 75%; in test [2], at least 50%; in test [3] it was at least 75%. In the test on Bean Aphid (Aphis fabae), this compound yielded a mortality at 10 ppm of at least 90%. In addition, the results for the mortality at 2500 µg/mL in test [4] and in test [5] were at least 80% and 100%, respectively.
On to `CN(C(=O)c1cn(C(F)F)nc1C(F)(F)F)c1cccnc1` [Compound 195], for which the mortality at 300 ppm in test [1] was at least 75%; in test [2], at least 50%; in test [3], at least 75%; in test [6] it was at least 50%. Besides, in test [4], the mortality at 2500 µg/mL is at least 80%.
For `O=C(Nc1cccnc1)c1cnn(-c2ccc(F)cc2)c1C(F)F` [Compound 94], the mortality at 300 ppm in test [1] was at least 75%; in test [2], at least 50%; in test [3], at least 75%. Moreover, the mortality at 10 ppm in the test with Bean Aphid (Aphis fabae) is at least 90%. Also, the mortality at 2500 µg/mL was at least 80% in test [4] and 100% in test [5].
Regarding `CN(C(=O)c1cn(C)nc1C(F)(F)F)c1cccnc1` [Compound 29, 1-Methyl-3-trifluoromethyl-1H-pyrazole-4-carboxylic acid methyl-pyridin-3-yl-amide], the mortality at 300 ppm in test [1] is at least 75%; in test [2], at least 50%; in test [3] it was at least 75%; in test [7] it was at least 50%. This compound returned a mortality at 10 ppm with Bean Aphid (Aphis fabae) of at least 90%. In test [4], the mortality at 2500 µg/mL is at least 80%.

(Values after US8642597B2, “Pyrazole compounds for controlling invertebrate pests” (BASF SE, priority 2007, dated 2014).)
